Assays:
TLR4/MD2/CD14 = TLR4/MD2/CD14 (Homo sapiens, UniProt O00206+Q9Y6Y9); assay: Luciferase reporter assay in HEK-293+TLR4/MD2/CD14 cells; type: cell-based; conditions: corrected on renilla activity; ratios compared to non-stimulated cells; cells lysed 24 h after ligand
Procedure: (§1) Stable immortalized HEK-293+TLR2/6 and HEK-293+TLR4/MD2/CD14 (Invitrogen) cells were seeded in 6-well plates in 1× DMEM supplemented with 5% FBS, 1 mM glutamine, amino acids not essential 1× and pyruvate 0.01%. At 80% confluency, pcon3A-luciferase (pcon3A motif responses to KNFB activation) and TK-renilla vectors (99:1 ratio, respectively) were transfected with metafectene. The transfection medium was changed after 24 hours, and the cells were seeded in 96-well plates. Ligands were added 24 hours later at 80% confluence and cells were lysed after 24 h. Luciferase activity was read using the TwinLite kit (Perkin Elmer) on a Fluo Star Optima (BMG) plate reader and corrected based on renilla activity (three replicates per condition). All ratios were compared to the control condition (non-stimulated cells). We used Pam3CSK4, FSL-1, and Escherichia coli LPS as control ligands with agonistic effect mediated by TLR2/1, TLR2/6, and TLR4 receptors, respectively. TNF alpha was used as a positive control in all cell lines.

TLR2/6 = TLR2/6 (Homo sapiens, UniProt O60603+Q9Y2C9); assay: Luciferase reporter assay in HEK-293+TLR2/6 cells; type: cell-based; conditions: corrected on renilla activity; ratios compared to non-stimulated cells; cells lysed 24 h after ligand
Procedure: as §1

TLR4/MD2/CD14, sequence (Q9Y6Y9 19-160): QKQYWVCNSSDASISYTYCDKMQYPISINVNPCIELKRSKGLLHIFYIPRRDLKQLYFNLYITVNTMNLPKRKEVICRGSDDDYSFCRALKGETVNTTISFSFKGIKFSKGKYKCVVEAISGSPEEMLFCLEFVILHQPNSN
TLR4/MD2/CD14, sequence (O00206 24-839): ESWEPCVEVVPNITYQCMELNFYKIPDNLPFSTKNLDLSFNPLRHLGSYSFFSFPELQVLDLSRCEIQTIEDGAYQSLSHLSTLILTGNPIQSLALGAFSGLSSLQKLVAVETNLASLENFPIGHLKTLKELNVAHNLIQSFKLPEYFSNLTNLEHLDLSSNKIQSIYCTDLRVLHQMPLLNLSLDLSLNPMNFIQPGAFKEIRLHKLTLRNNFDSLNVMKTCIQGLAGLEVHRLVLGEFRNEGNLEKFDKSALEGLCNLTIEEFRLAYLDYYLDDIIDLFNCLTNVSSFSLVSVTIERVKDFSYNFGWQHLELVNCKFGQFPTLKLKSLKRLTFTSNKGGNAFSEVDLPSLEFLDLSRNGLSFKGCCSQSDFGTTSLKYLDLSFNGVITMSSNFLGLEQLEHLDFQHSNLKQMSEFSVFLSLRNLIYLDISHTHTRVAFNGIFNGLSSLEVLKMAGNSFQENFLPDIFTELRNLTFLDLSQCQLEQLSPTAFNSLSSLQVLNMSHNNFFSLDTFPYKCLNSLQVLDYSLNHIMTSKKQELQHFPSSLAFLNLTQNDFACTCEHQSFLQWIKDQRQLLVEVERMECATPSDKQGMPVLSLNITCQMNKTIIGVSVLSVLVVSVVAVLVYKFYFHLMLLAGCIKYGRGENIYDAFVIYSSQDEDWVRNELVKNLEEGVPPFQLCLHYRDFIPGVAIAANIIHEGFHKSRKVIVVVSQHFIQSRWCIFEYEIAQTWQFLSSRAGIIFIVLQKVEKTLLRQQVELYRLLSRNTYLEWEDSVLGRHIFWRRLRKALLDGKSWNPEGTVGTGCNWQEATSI
TLR2/6, sequence (O60603 21-784): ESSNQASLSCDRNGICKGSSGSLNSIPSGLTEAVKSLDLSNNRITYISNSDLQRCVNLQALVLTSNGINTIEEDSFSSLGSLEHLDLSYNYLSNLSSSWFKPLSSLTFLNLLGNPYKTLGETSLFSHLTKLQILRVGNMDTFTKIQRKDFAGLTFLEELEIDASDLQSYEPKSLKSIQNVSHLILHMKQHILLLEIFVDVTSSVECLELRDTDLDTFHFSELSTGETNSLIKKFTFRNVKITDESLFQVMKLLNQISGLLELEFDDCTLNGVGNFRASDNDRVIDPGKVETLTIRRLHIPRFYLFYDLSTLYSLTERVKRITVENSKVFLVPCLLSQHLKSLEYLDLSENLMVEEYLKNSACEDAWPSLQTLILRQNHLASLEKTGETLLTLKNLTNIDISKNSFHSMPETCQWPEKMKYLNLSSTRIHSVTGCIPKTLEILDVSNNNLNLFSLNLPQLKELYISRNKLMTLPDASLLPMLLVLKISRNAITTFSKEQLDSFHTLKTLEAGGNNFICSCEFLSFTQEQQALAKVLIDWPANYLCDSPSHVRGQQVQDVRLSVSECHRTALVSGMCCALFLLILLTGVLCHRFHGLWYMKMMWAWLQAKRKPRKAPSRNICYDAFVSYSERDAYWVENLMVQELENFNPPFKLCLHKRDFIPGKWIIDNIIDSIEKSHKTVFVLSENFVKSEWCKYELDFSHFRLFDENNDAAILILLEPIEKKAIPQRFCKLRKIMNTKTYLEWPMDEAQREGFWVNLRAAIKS
TLR2/6, sequence (Q9Y2C9 32-796): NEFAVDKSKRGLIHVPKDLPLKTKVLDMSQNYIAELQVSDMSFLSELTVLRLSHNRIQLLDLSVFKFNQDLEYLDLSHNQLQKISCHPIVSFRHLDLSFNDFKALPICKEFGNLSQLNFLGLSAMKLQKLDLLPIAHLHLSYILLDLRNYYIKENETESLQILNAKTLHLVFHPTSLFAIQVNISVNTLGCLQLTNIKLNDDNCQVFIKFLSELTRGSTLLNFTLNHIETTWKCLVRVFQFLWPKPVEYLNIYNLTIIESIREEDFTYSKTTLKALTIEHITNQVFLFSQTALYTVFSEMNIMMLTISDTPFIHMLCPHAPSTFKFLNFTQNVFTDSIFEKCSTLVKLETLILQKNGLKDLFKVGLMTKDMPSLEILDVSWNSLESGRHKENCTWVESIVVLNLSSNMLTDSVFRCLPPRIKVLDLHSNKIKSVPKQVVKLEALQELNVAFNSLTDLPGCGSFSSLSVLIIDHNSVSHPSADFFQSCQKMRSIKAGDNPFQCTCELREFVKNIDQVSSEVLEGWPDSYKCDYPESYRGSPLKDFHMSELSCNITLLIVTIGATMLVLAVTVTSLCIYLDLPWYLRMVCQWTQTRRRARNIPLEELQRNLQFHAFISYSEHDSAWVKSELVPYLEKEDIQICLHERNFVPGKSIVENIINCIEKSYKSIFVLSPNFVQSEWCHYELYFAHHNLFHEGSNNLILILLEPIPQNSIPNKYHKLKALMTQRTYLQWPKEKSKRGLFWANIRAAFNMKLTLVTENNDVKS

Row | Substance | HEK-TLR4 luciferase activity (TLR4/MD2/CD14) | HEK-TLR2 luciferase activity (TLR2/6)
1 | FSL-1 | 1.123 fold vs non-stimulated cells | 2.195 fold vs non-stimulated cells
2 | Pam3CSK4 | 1.112 fold vs non-stimulated cells | 4.079 fold vs non-stimulated cells

— patent publication US20260000705A1, “LIPOPOLYSACCHARIDE FOR USE AS A MEDICAMENT” (priority 2022, published 2026)
